Assay results published in patent US10383955B2, “Human mast cell lines, preparation and uses” (CENTRE NATIONAL DE LA RECHERCHE SCIENTIFIQUE, priority 2011, dated 2019).
Entries after “also recorded” stand apart in the source; their conditions may differ.

Assays:
[1] = in therapy; cited from earlier work
[2] = tested on: cells of the ROSA KIT WT line; experiment: Membrane CD203c expression after stimulation (flow cytometry); assay type: cell-based, human; conditions: cells treated with IL-4 + IgE 5 days; anti-IgE 5 or 10 μg/ml or calcium ionophore 1 μmol/l, 1 hour
Description: In order to know whether the cells of the ROSA KIT WT line can be activated by the IgE-anti-IgE antibody coupling, resulting in degranulation with immediate release of histamine and of β-hexosaminidase associated with a significant increase in membrane CD203c expression and with delayed release of TNF-alpha, cells are treated with IL-4 (20 ng/ml) and IgE (2 μg/ml) (Merck Bioscience) for 5 days and then stimulated with anti-IgE (5 or 10 μg/ml) (Biovalley) or with the calcium ionophore (Cai) (Sigma) (1 μmol/l) for 1 or 6 hours. The 1 hour supernatant and also the pellet are used to assay the histamine and to measure the expression of CD203c at the cell surface, while the TNF-alpha is measured by a specific ELISA method in the supernatant of the cells after 6 hours of stimulation.
One ml of cells treated with IL-4 (20 ng/ml) and IgE (2 μg/ml) for 5 days are washed twice with 3 ml of PBS and then again placed in culture medium at a concentration of 1×10^6 cells/ml. These cells are then stimulated with anti-IgE (5 or 10 μg/ml) or with the calcium ionophore (Cai) (1 μmol/l) for 1 hour. The cells are washed with PBS and put back into 100 μl of PBS, 1% FCS in the presence of an antibody directed against human CD203c, coupled to phycoerythrin (PE) (20 μl/l million cells) (Biolegend).

[3] = tested on: cells of the ROSA KIT WT line; experiment: β-hexosaminidase release after stimulation; assay type: cell-based, human; conditions: cells treated with IL-4 20 ng/ml and IgE 2 μg/ml; anti-IgE 5 μg/ml or calcium ionophore 1 μmol/l, 1 hour
Description: The activation of the cells of the ROSA KIT WT line was also measured by determining the released β-hexosaminidase activity. ROSA cells treated with IL-4 (20 ng/ml) and IgE (2 μg/ml) are subsequently activated for 1 hour at 37° C. in the presence of 5% CO2, with the anti-IgE antibody (5 μg/ml) or with the calcium ionophore (Cai) (1 μmol/l).
The cells are then centrifuged and the supernatants are recovered and frozen at −80° C. until the time of the assay. The cells are then lysed. The β-hexosaminidase activity is measured in the supernatant and also in the cell pellet as described by Schwartz and Austen, J Invest Dermatol., 74, 349-353, 1980.
The hydrolysis of p-nitrophenyl-2-acetamido-2-deoxy-β-D-glucopyranoside (or 4-nitrophenyl-N-acetyl-β-D-glucosaminide) by β-hexosaminidase leads to the release of a chromophore product: p-nitrophenol. The latter is measured by spectrophotometry at 405 nm. • 50 μl of p-nitrophenyl-2-acetamido-2-deoxy-β-D-glucopyranoside (Sigma) are added to 5 μl of supernatant • Incubation for 2 hours at 37° C. with stirring. • Addition of 150 μl of stop solution (7.5 g of glycine in 500 ml of H2O, pH=10.7). Reading at 405 nm.

[4] = tested on: HMC-1, subclone HMC-1.1 (KIT V560G); conditions: juxtamembrane KIT V560G mutation; cited from earlier work
ROSA KIT D816V line = experiment: Proliferation of ROSA KIT D816V line with tyrosine kinase inhibitors (WST-1); assay type: cell-based, human; conditions: 1 μM/l, 48 hours, without SCF, relative to DMSO 0.1%
Description: (§1) Finally, the inventors evaluated the effect of two molecules which inhibit tyrosine kinase activity, imatinib and dasatinib (both supplied by Sequoia Research), on the proliferation of the 3 ROSA KIT WT, ROSA KIT D816V and ROSA KIT Delta 417-419 insY lines. To do this, the cells were seeded at a starting concentration of 3×10^5 cells per ml in 96-well plates (100 μl per well) and incubated at 37° C. in an incubator (5% CO2 in air) for 48 hours in the presence of 1 μM/l of imatinib or of dasatinib (in DMSO brought to a final concentration of 0.1%) or in the presence of DMSO alone (0.1% final concentration) in their usual culture medium (containing human SCF at 80 ng/ml for the ROSA KIT WT line but without SCF for the ROSA KIT D816V and ROSA KIT Delta 417-419 insY lines). At the end of this incubation, 10 μl of WST-1 (Roche Applied Science) are added to each well and the cells are incubated for a further 3 hours in an incubator at 37° C. The number of live cells is then measured for each condition by reading the absorbance at 450 nm using a Multiskan MS plate reader (Thermo LabSystems).
(§2) The results obtained for each line (presented in FIG. 15) are expressed as % of live cells (the condition DMSO alone at 0.1% final concentration being considered to contain 100% of live cells).

[5] = tested on: subclone HMC-1.2 (KIT V560G and D816V); conditions: two KIT mutations (V560G and D816V); cited from earlier work
[6] = tested on: ROSA KIT Delta 417-419 insY line; experiment: Proliferation of ROSA KIT Delta 417-419 insY line with tyrosine kinase inhibitors (WST-1); assay type: cell-based, human; conditions: 1 μM/l, 48 hours, without SCF, relative to DMSO 0.1%
Description: as §1, §2

ROSA KIT WT line = experiment: Proliferation of ROSA KIT WT line with tyrosine kinase inhibitors (WST-1); assay type: cell-based; conditions: 1 μM/l, 48 hours, medium with human SCF 80 ng/ml, relative to DMSO 0.1%
Description: as §1, §2

KIT D816V mutation = KIT D816V mutation (Homo sapiens, UniProt P10721, D816V); conditions: cited from earlier work
[7] = tested on: ROSA KIT WT, ROSA KIT Delta 417-419 insY and KIT D816V lines; experiment: Membrane marker expression in the three ROSA lines (flow cytometry); assay type: cell-based, human; conditions: IL-4 20 ng/ml
From the text: Moreover, the expression of certain membrane markers present on the cells of the ROSA KIT Delta 417-419 insY and KIT D816V lines, optionally present in the presence of SCF, was studied by flow cytometry, this expression being compared with that of the cells of the ROSA KIT WT line. The results obtained (presented in FIG. 12) were the following: • the cells of the ROSA KIT Delta 417-419 insY and KIT D816V lines spontaneously express (in the absence of SCF) more CD38, CD203c and KIT than the cells of the ROSA KIT WT line, this increase in expression being completely abolished in the presence of SCF, • the cells of the KIT D816V line express more CD54 than the cells of the other two lines, whether in the absence or in the presence of SCF, • the cells of the KIT D816V line express more FcεR1 than the cells of the other two lines in the absence of SCF, this phenomenon being abolished by adding SCF, • the cells of the ROSA KIT Delta 417-419 insY and KIT D816V lines express, in the presence of SCF, more CD63 than the cells of the ROSA KIT WT line, this increase in expression being completely abolished in the absence of SCF, • the expression of CD53 and of FcεR1 is increased in the 3 lines by treatment with IL-4 (20 ng/ml), and • the expression of KIT is decreased in the three lines by treatment with IL-4 (20 ng/ml).

[8] = tested on: cells of the ROSA KIT WT line; experiment: FcεRI and KIT expression after IL-4 treatment (flow cytometry); assay type: cell-based, human; conditions: IL-4 20 ng/ml for 5 days
Description: Since it has been shown in the literature that interleukin-4 (IL-4) induces a decrease in KIT expression and an increase in FcεR1 expression by normal human mast cells, the inventors wanted to verify whether this phenomenon could also be observed on the ROSA KIT WT line. For this, they used the following technique: • 10 ml of cells in culture at approximately 2×10^5 cell/ml are used for each tube. • The cells are centrifuged and the pellet is taken up in 10 ml of new culture medium and then the cells are treated with IL-4 (20 ng/ml) (R&D) for 5 days. • The cells are centrifuged in order to remove the culture medium. • The pellets are taken up in 100 μl of PBS+1% FCS, and incubated for 45 min at +4° C. in the presence of anti-human IgE antibody coupled to FITC (20 μl/l million cells (Merck Bioscience)), or in the presence of anti-human KIT antibody coupled to APC (20 μl/l million cells) (Biolegend). • Two rinses are carried out in 3 ml of PBS, 0.1% FCS, and then the tubes are centrifuged. • The pellets are collected in 300 μl of PBS, 0.1% FCS.
The reading is carried out by FACS (BD FACSCalibur).

Sequence of KIT D816V mutation (P10721 26-976 D816V): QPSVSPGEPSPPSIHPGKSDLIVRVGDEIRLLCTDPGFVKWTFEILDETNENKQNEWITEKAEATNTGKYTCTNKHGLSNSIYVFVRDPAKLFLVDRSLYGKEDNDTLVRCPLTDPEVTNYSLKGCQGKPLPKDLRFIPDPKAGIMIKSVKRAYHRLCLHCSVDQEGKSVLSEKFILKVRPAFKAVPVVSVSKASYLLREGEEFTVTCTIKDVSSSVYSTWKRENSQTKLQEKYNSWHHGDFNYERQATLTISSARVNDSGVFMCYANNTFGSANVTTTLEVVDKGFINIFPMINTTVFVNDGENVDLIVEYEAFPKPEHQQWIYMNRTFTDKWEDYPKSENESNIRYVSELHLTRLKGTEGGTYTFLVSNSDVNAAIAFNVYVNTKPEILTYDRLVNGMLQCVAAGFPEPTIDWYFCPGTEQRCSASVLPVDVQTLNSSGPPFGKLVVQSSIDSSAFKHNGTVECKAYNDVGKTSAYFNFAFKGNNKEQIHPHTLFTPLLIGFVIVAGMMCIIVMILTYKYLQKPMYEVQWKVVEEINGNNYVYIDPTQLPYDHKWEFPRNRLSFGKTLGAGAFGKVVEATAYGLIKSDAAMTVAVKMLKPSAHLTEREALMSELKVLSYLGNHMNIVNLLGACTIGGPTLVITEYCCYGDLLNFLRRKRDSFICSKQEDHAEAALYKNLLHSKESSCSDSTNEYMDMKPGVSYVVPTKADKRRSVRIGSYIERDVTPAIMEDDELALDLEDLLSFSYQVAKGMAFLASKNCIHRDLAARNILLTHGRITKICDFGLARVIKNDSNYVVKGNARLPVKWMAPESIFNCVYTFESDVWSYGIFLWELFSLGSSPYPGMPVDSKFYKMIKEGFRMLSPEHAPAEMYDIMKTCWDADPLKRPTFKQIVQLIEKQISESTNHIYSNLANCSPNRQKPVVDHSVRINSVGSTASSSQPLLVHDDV

In the case of `Cc1nc(Nc2ncc(C(=O)Nc3c(C)cccc3Cl)s2)cc(N2CCN(CCO)CC2)n1` [dasatinib], the toxicity in humans [1] is given as “high toxicity”.

In the case of `CNc1ccc2oc(C[C@H]3O[C@@]4(CC[C@H]3C)O[C@H]([C@H](C)C(=O)c3ccc[nH]3)[C@H](C)C[C@H]4C)nc2c1C(=O)O` [calcium ionophore, calcium ionophore A23187], the “membrane CD203c expression” value [2] is reported as “increase” and the “β-hexosaminidase release, of the total enzyme content of the cells” value [3] is reported as “up to 80%”.

In the case of `Cc1ccc(NC(=O)c2ccc(CN3CCN(C)CC3)cc2)cc1Nc1nccc(-c2cccnc2)n1` [imatinib], the “sensitivity of the line” value [4] is listed as “sensitive”, the “inhibition of proliferation (% of live cells)” value (“inhibition … (% of live cells)” below) (ROSA KIT D816V line) is listed as “resistance; also recorded: incapable of inhibiting the proliferation” and the “sensitivity of the line” value [5] is listed as “not”. The “inhibition … (% of live cells)” value [6] was “sensitivity”, the “inhibition … (% of live cells)” value ([6]; listed as Imatinib) was “sensitive” and the “inhibition … (% of live cells)” value (ROSA KIT WT line) was “sensitive”. For the same molecule, the “activity on the KIT D816V mutation” value (KIT D816V mutation) was “completely inactive”.

In the case of IL-4: interleukin-4 cytokine (R&D), the “expression of CD53” value ([7]; in the 3 lines) is reported as “increased”, the “expression of FcεR1” value ([7]; in the 3 lines) is reported as “increased” and the “expression of KIT” value ([7]; in the three lines) is reported as “decreased”. The KIT expression [8] was “decrease” and the “expression of the high-affinity IgE receptor” value [8] was “increase”.
